Measured values as given in patent US7416741B2, “Copper lowering treatment of inflammatory and fibrotic diseases” (The Regents of the University of Michigan, priority 2002, dated 2008).

Key:
[1] = system: TNFα; assay: Plasma TNFα in Con A treated mice; format: in vivo, mouse; details: Ex 5 Exp 3; TM from 5 days before first of two Con A injections; 2 hrs after last; p=0.03
Text: In a third experiment, two Con A injections one week apart were given to 10 mice. Five of the mice had begun TM treatment 5 days prior to the first injection. All the mice were sacrificed 2 hrs after the last Con A injection.

[2] = system: Wilson's disease patients; assay: Open label study of TM for initial treatment of neurologically presenting Wilson's disease patients; format: in vivo, human
Text: The results in the first patient studied can be used to illustrate several points. For the first seven days, the patient received TM only with meals (tid with meals). This produced the immediate negative copper balance one would expect from the first mechanism of action (blockade of copper absorption when given with meals). After the first seven days, TM was given between meals as well (tid with meals, and tid between meals). This led to the immediate rise in plasma copper expected from absorption of TM into the blood, and formation of a complex of copper, TM, and albumin. The copper complexed with TM and albumin is unavailable for cellular uptake, and this copper is therefore non-toxic. There is a 1:1 stochiometric relationship between molybdenum and copper in this complex. Knowing the molybdenum level in the blood, and the ceruloplasmin level (ceruloplasmin also contains copper that is non-toxic), one can calculate how much of the plasma copper is not bound to one or the other. This so-called “free copper” (non-ceruloplasmin plasma copper) is the potentially toxic copper. When reduced to zero, the plasma copper-molybdenum “gap” is closed. This took 16 days in the first patient (9 days after adding the between meal doses). Since in the brain (and in other organs), free copper is in equilibrium with the blood, decreasing the blood free copper to a low level begins the process of lowering the brain level of free (toxic) copper.
The inventors have treated initially 56 Wilson's disease patients with TM, all of whom presented with neurological or psychiatric disease, in an open label study. These patients were all diagnosed by standard criteria. […] Some of them were treated briefly with other agents prior to this trial. Two patients had psychiatric but not neurological symptoms.
With three exceptions in the earliest part of the study, all patients received a dose of 20 mg tid with meals, or qid with three meals and a snack. Thus, the only difference between a patient receiving 120 mg and 140 mg total dose is that the former was receiving 20 mg tid, or 60 mg, with meals, and the latter was receiving 20 mg qid, or 80 mg with meals plus a snack. The rest of the total daily dose was divided up into three equal doses and given between meals.
Measuring trichloracetic acid (TCA) soluble copper of the plasma is somewhat useful in assessing the impact of TM therapy on copper metabolism in Wilson's disease. Generally, a high proportion of plasma copper in these patients is TCA soluble (it averaged 56% in patients which is 27 p.g/dl). All of the non-ceruloplasmin plasma copper is TCA soluble, and a somewhat variable portion of the ceruloplasmin copper is also TCA soluble. Because the ceruloplasmin levels are usually rather low in Wilson's disease, most of the plasma copper is TCA soluble. The copper in the TM/albumin/copper complex in the blood is TCA insoluble. Thus, as therapy proceeds, the fraction of the plasma copper that is TCA soluble becomes smaller. […] The TCA soluble fraction cannot be used as an absolute endpoint, for example attempting to reduce it to zero, because a small and somewhat variable soluble fraction is usually present due to plasma ceruloplasmin. However, the significant mean reduction from 27 to 15 p.g/dl illustrates the beneficial effect that TM therapy has on the status of the potentially toxic plasma copper in these patients. Further evidence of the desirable impact of TM therapy on copper metabolism is shown by reduction of mean urine copper values during the latter part of TM therapy, compared to baseline values.
TM has a quick and favorable impact on copper metabolism, reducing the levels of potentially toxic copper of the blood and as contemplated the rest of the body as well. The primary clinical objective in treatment of Wilson's disease is to gain control over copper toxicity while not allowing worsening of the disease or symptoms. […]

[3] = sheep; intravenous 99Mo labeled TM; cited from earlier work
[4] = system: serum ceruloplasmin (Cp); assay: Copper status by serum ceruloplasmin (oxidase activity) in mice; format: in vivo, mouse; details: for Ceruloplasmin Values: Ex 1 Exp 2
Text: Copper status. In the presence of TM therapy, copper status is difficult to assess by measuring serum copper directly, since a slowly turning over tripartite complex of TM, copper, and albumin accumulates, causing the serum copper to be elevated even though availability of copper is decreasing. However, the inventors have previously determined that serum ceruloplasmin (Cp) is a good surrogate marker of copper status (G J Brewer et al., Clin. Cancer, 6: 1-10 [2000]), because the liver secretes this copper containing protein into the blood at a rate dependent upon copper availability. Copper status was followed by assaying serum ceruloplasmin (Cp), by measuring its oxidase activity (K H Schosinsky et al., Clin. Chem., 20(12)1556-1563 [1974]). Blood was obtained from the tail vein of the mice. To avoid excessive bleeding, only one mouse from each group was bled at any time point during the study, and mice were rotated so that different mice were bled at the different time points. A Cp assay in all mice was done at time of sacrifice.
Copper status. In the presence of TM therapy, copper status cannot be assessed by direct measurement of serum copper because of the accumulation of a tripartite complex of TM, copper, and albumin that turns over slowly, causing the serum copper to be increased even though availability of copper is decreasing. […] Copper status was monitored by assaying serum ceruloplasmin on the basis of its oxidase activity in blood from the tail vein. To avoid excessive bleeding, one mouse from each group was bled at each time point; mice were rotated so that different mice were bled. A ceruloplasmin assay was conducted in each mouse when it was killed.

[5] = among the seven anemia patients

## [SH-].[SH-].[S]=[Mo]=[S] [TM, tetrathiomolybdate]
[1]
  Plasma levels of TNFα: significantly lower
[2]; 56 patients
  patients with reversible anemia/bone marrow depression: seven
[2]; all treated with 150 mg TM/day or higher
  patients with elevation of transaminase values (serum AST and ALT): four of the patients
[2]; [5]
  patients with reduction in platelet count: Three of the patients
  patients with reduction in white blood cell count: four of the patients
[2]; average in the seven anemia patients
  fall in hemoglobin: 3.4%
[2]; dose of 180 mg/day or over
  overtreatment incidence: 6 of 37
[2]; dose of 150 or lower
  overtreatment incidence: 1 of 13
[2]; during weeks of TM administration, two patients
  patients with change of more than 5 units in quantitative neurological exam (significant worsening): 4%
[2]; first patient, TM tid with meals, from day 7 also tid between meals
  time to close the plasma copper-molybdenum gap (free copper reduced to zero): 16 days
[2]; initial 8 weeks of TM therapy
  quantitative speech exam scores: No patient shows significant (more than 2.0 units) reduction in scores
[3]
  excreted in feces: 5%
  excreted in urine: over 90%
  half-time of slow disappearance from plasma: about 40 h
[4]; Ex 1 Exp 1, Bleomycin/TM group, sacrifice day 21
  Ceruloplasmin: 13.9 ± 3.3 I.U
[4]; Ex 1 Exp 1, TM alone (group 4)
  mean ceruloplasmin relative to saline controls: about 80%
[4]; Ex 1 Exp 1, TM only group, sacrifice day 21
  Ceruloplasmin: 18.1 ± 3.4 I.U
[4]; Ex 1 Exp 1, bleomycin/TM mice (group 3)
  mean ceruloplasmin level relative to bleomycin animals: about 55%
[4]; TM 0.3 mg/day/mouse, day 14, single mouse
  Ceruloplasmin Values: 23.6 International Units
[4]; TM 0.3 mg/day/mouse, day 21 (sacrifice), mean and standard error of four mice
  Ceruloplasmin Values: 5.4 ± 2.7 International Units
[4]; TM 0.5 mg/day/mouse, day 8, single mouse
  Ceruloplasmin Values: 14.4 International Units
[4]; TM 0.5 mg/day/mouse, day 14, single mouse
  Ceruloplasmin Values: 10.6 International Units
[4]; TM 0.5 mg/day/mouse, day 21, mean and SE of four mice
  Ceruloplasmin Values: 4.5 ± 2.7 International Units
[4]; TM 0.7 mg/day/mouse, day 8, single mouse
  Ceruloplasmin Values: 12.6 International Units
[4]; TM 0.7 mg/day/mouse, day 14, single mouse
  Ceruloplasmin Values: 15.5 International Units
[4]; TM 0.7 mg/day/mouse, day 21, mean and SE of four mice
  Ceruloplasmin Values: 4.7 ± 2.2 International Units
[4]; TM 0.9 mg/day/mouse, day 8, single mouse
  Ceruloplasmin Values: 0.6 International Units
[4]; TM 0.9 mg/day/mouse, day 14, single mouse
  Ceruloplasmin Values: 3.7 International Units
[4]; TM 0.9 mg/day/mouse, day 21, mean and SE of four mice
  Ceruloplasmin Values: 1.8 ± 0.7 International Units
[4]; TM maintenance 0.3 mg/day/mouse, day 8, single mouse
  Ceruloplasmin Values: 20.3 International Units
[4]; Ex 2 Exp 1, TM 1.2 mg/day 4 days before bleomycin then 0.9 mg/day, sacrifice day 7
  mean Cp levels in TM treated groups relative to non-TM treated groups: approximately half
[4]; Ex 2 Exp 2, TM started 5 days after bleomycin, sacrifice day 21
  mean Cp level of bleomycin/TM group as % of the bleomycin group mean: 38%
[4]; Ex 2 Exp 2, sacrifice day 21
  mean Cp of TM control group as % of the saline control group mean: 50%
[4]; daily gavage of 0.7 mg TM/mouse
  serum Cp levels relative to baseline levels: 25-50%
